System: 83 tyrosine kinases
Assay: Panel of 83 TR-FRET tyrosine kinase assays
Format: biochemical
Details: 83 tyrosine kinases tested; conditions of Example 1
Description: TR-FRET kinase assays are performed under standardized conditions: various individual kinases are incubated with 50 nM of kinase substrate BRB1 labeled with the TR-FRET acceptor dye ULight (PerkinElmer) and 200 micromolar ATP in 10 μL of kinase assay buffer (50 mM HEPES pH7.5, 10 mM MgCl2, 3 mM MnCl2, 1 mM EGTA, 2 mM DTT and 0.01% Tween-20) for 2 hours at room temperature. Reactions are stopped with EDTA, and anti-phospho-tyrosine antibodies (clone PT66) labeled with the TR-FRET europium chelate donor dye are added to a final concentration of 2 nM in a final volume of 20 μL. The TR-FRET signal emitted at 665 nm is read one hour after the addition of antibodies using a TR-FRET plate reader such as the Envision® Multilabel Plate reader (PerkinElmer). The emitted signal at 665 nm is proportional to the extent of peptide phosphorylation, Control reactions indicative of background are performed excluding ATP from the reaction.
Assay conditions are identical to those used described for FIG. 1.
The BRB2 peptide is tested with 83 tyrosine kinases in assay conditions identical to those used for BRB1 in Example 1. Data obtained with BRB2 indicate that the peptide is phosphorylated by 65 kinases out of 83 (78%), with signal to noise ratio of >3.

Number of kinases out of 83 that phosphorylated the peptide with signal to noise ratio of >3: 65 | Percentage of 83 kinases that phosphorylated the peptide with signal to noise ratio of >3: 78%
Sequence: CGG E AYE AYE AYE AYA EYE ARR (CGGEAYEAYEAYEAYAEYEARR; tyrosine kinase substrate peptide) [BRB2]

— patent US8242083B2, “Kinase substrates” (PerkinElmer Health Sciences, Inc., priority 2008, dated 2012)
